We go through five molecules from ChEMBL document CHEMBL4390671, “FragLites-Minimal, Halogenated Fragments Displaying Pharmacophore Doublets. An Efficient Approach to Druggability Assessment and Hit Generation” (J Med Chem, 2019).

Assay [1] addresses T1, Cyclin-dependent kinase 2 (Homo sapiens, UniProt P24941). Kind of assay: Binding affinity to full-length human CDK2 expressed in Escherichia coli BL21 (DE3) pLysS cells at 1 to 5 mM by isothermal titration calorimetry.
The target of assay [2] is T1, Cyclin-dependent kinase 2. Kind of assay: Binding affinity to full-length human CDK2 expressed in Escherichia coli BL21 (DE3) pLysS cells at 5 mM by isothermal titration calorimetry.
Assay [3] deals with T1, Cyclin-dependent kinase 2. In words: Binding affinity to full-length human CDK2 expressed in Escherichia coli BL21 (DE3) pLysS cells by isothermal titration calorimetry.

The source made the active and inactive calls. The rule behind the calls is not given here.

As for `Nc1nc(Oc2cccc(CC(=O)O)c2)c2nc[nH]c2n1`, the outcome in assay [1] was inactive.

With `Brc1cn[nH]c1`, the result in assay [2] was inactive.

Take `NS(=O)(=O)c1ccc(Br)cc1`: in assay [2], the outcome was inactive.

In assay [3], `Nc1nc(I)c2nc[nH]c2n1` showed a Kd of 350 µM.

`Nc1nc(-c2cccc(CC(=O)O)c2)c2nc[nH]c2n1`: in assay [3], the Activity result was “Dose-dependent effect” and the Kd came out at 50 µM.
